{"source": "patent US20200230084A1", "about": "(Strongbridge Dublin Limited, priority 2019, published 2020)", "key": {"[1]": {"details": "cited from earlier work"}, "[2]": {"details": "cited from earlier work", "remark": "listed apart in the source"}, "[3]": {"tested_on": "patients with primary periodic paralysis", "test": "Phase III double-blind plus open-label extension study: cognition-related adverse events during dichlorphenamide treatment", "format": "in vivo, human", "description": "Data were analyzed from a 9-week Phase III, randomized, double-blind, placebo-controlled phase and a 52-week open-label extension phase. The trial included two substudies: one in adults with hyperkalemic periodic paralysis and one in adults with hypokalemic periodic paralysis. The substudy data were pooled. Medical Dictionary for Regulatory Activities high-level group terms of deliria (including confusion) and mental impairment disorders were pooled for cognition-related events. Kaplan-Meier methods were used to estimate the percentages of patients with no occurrence of the adverse event over time.\nDose reductions were allowed for intolerable adverse events. […] Adverse events reported during dichlorphenamide exposure were summarized by double-blind treatment/open label treatment (placebo/dichlorphenamide or dichlorphenamide/dichlorphenamide) group.\nThe age range was 19 to 76 years."}, "[4]": {"details": "n = 63, cognition-related adverse events"}, "[5]": {"details": "n = 63, considered by investigators at least possibly related to study drug"}, "[6]": {"details": "n = 63, listed as dichlorphenamide"}}, "note": "Entries after “also recorded” stand apart in the source; their conditions may differ."}
{"compound": "NS(=O)(=O)c1cc(Cl)c(Cl)c(S(N)(=O)=O)c1", "note": "[Dichlorphenamide, 4,5-dichloro-1,3-benzenedisulfonamide]", "values": [{"measurement": "Stability of dilute alkaline solutions", "setting": "[1]; room temperature", "result": "stable"}, {"measurement": "Storage stability", "setting": "[1]; storage", "result": "at least 36 months"}, {"measurement": "Solubility in dilute solutions of sodium carbonate and sodium hydroxide", "setting": "[2]; dilute sodium carbonate and sodium hydroxide solutions", "result": "soluble"}, {"measurement": "Solubility in water", "setting": "[2]; water", "result": "very slightly soluble"}, {"measurement": "Intensity of cognition-related adverse events (in words)", "setting": "[3]; 61-week study", "result": "Most cognition-related adverse events were mild in intensity; also recorded: mild or moderate in intensity"}, {"measurement": "Discontinuation due to cognition-related adverse event, patients %", "setting": "[3]; n = 63", "result": "(6.3) %"}, {"measurement": "Discontinuation due to cognition-related adverse event, patients n", "setting": "[3]; n = 63", "result": 4, "unit": "patients"}, {"measurement": "Resolution of last cognition-related adverse event: Resolved, patients %", "setting": "[3]; n = 63", "result": "(17.5) %"}, {"measurement": "Resolution of last cognition-related adverse event: Resolved, patients n", "setting": "[3]; n = 63", "result": 11, "unit": "patients"}, {"measurement": "Resolution of last cognition-related adverse event: Under treatment/observation, patients %", "setting": "[3]; n = 63", "result": "(7.9) %"}, {"measurement": "Resolution of last cognition-related adverse event: Under treatment/observation, patients n", "setting": "[3]; n = 63", "result": 5, "unit": "patients"}, {"measurement": "Any cognition-related adverse event, patients %", "setting": "[3]; n = 63, 61-week study duration", "result": "(25.4) %"}, {"measurement": "Any cognition-related adverse event, patients n", "setting": "[3]; n = 63, 61-week study duration, pooled hyper/hypokalemic periodic paralysis", "result": 16, "unit": "patients"}, {"measurement": "Any cognition-related adverse event, patients %", "setting": "[3]; n = 63, 61-week study duration, listed as dichlorphenamide", "result": 25.4, "unit": "%"}, {"measurement": "Adverse event intensity: Mild, patients %", "setting": "[3]; [4]", "result": "(14.3) %"}, {"measurement": "Adverse event intensity: Mild, patients n", "setting": "[3]; [4]", "result": 9, "unit": "patients"}, {"measurement": "Adverse event intensity: Moderate, patients %", "setting": "[3]; [4]", "result": "(7.9) %"}, {"measurement": "Adverse event intensity: Moderate, patients n", "setting": "[3]; [4]", "result": 5, "unit": "patients"}, {"measurement": "Adverse event intensity: Severe, patients %", "setting": "[3]; [4]", "result": "(3.2) %"}, {"measurement": "Adverse event intensity: Severe, patients n", "setting": "[3]; [4]", "result": 2, "unit": "patients"}, {"measurement": "Any drug-related cognition-related adverse event, patients %", "setting": "[3]; [5]", "result": "(25.4) %"}, {"measurement": "Any drug-related cognition-related adverse event, patients n", "setting": "[3]; [5]", "result": 16, "unit": "patients"}, {"measurement": "Discontinuation due to cognition-related adverse event, patients %", "setting": "[3]; [6]", "result": 6.3, "unit": "%"}, {"measurement": "Discontinuation due to cognition-related adverse event, patients n", "setting": "[3]; [6]", "result": "Four"}, {"measurement": "Patients with cognition-related adverse event who had the dose of dichlorphenamide reduced, %", "setting": "[3]; of 16 patients with cognition-related adverse event", "result": 37.5, "unit": "%"}, {"measurement": "Outcome of cognition-related adverse event after dose reduction", "setting": "[3]; six patients with reduced dose", "result": "resolved in all six cases; also recorded: Reduced doses frequently resolved these adverse events"}, {"measurement": "Onset of cognition-related adverse events", "setting": "[3]; time from start of dichlorphenamide treatment", "result": "during the first four weeks; also recorded: within the first month of therapy"}]}
